Assay: Heavy metal (ferrous ion-Ferrozine) chelation assay
Assay type: biochemical
Conditions: Fe2+ chelation; calculated based on unpreserved extract dry weight
Method: The IC50 refers to the amount of extract required to chelate 50% of the available iron (II) in the assay. The lower the number, the higher the chelation power of an extract.
The ability of Inula extract to act as an anti-pollutant or antagonist of the adverse effects of pollutants and/or toxins in pollutants was further investigated in heavy metal chelation assays. Further to this objective, Inula extracts was tested in in vitro assay to assess its chelator power. In this assay, the ferrous ion is used as a model for heavy metals. The concentration of the ferrous iron-Ferrozine complex was measured by spectrophotometry (absorbance at 562 nm) to determine the Fe 2+-chelating ability of the extract or fraction. The reaction mixture, containing 2 Mm FeCl2 and 5 mM ferrozine was adjusted to 2 ml with bi-distilled water. The mixture was shaken and incubated for 10 min at room temperature. The absorbance of the mixture was measured at 562 nm against a blank EDTA was used as positive control. The choice of an internal reference may be adjusted in accordance with the heavy metal assay performed and such references are known in the art. Chelating power is expressed as an IC50 value (mg/ml) and reflects the concentration at which 50% of the available iron was chelated by, for example, supplemental extract added to the assay mix.

- IC50* (mg/ml DRY WEIGHT): 0.038 mg/ml DRY WEIGHT
SMILES: O=C(O)CN(CCN(CC(=O)O)CC(=O)O)CC(=O)O [EDTA (reference), EDTA]

Reference: patent US20210060108A1, “INULA HELENIUM EXTRACTS FOR TREATING AND PREVENTING POLLUTION RELATED DAMAGE” (priority 2017, published 2021)
